Measurements taken from patent publication US7635714B2, “Methods of treating dyschezia” (priority 2002, dated 2009).

What was measured:
normal rabbits (Kbl:JW) = assay: Acceleratory effects on defecation in normal rabbits (stool weight, water content of stools); format: in vivo, rabbit
Text: To study the difference of effects between GM-611 and a laxative, sennoside (sennoside solution (trade name), Taisho Pharm. Ind., Ltd.) was used as a laxative to compare with acceleratory effects of GM-611 on defecation. More specifically, normal rabbits were orally administered with GM-611 or sennoside and then measured for the weight and water content of stools. Normal rabbits (Kbl:JW), in groups of 13 to 15, were orally administered with vehicle (3 w/v % gum arabic suspension), GM-611 (1.25 mg/kg, 2.5 mg/kg, 5 mg/kg, 10 mg/kg), vehicle (purified water), or sennoside (12 mg/kg, 24 mg/kg, 48 mg/kg). The stool weight was then measured every 4 hours until 8 hours after administration. Also, their stools were collected, dried in a dry oven (at 120° C. for 24 hours or longer) and then the dry stool weight was measured to calculate the water content of stools (%) according to the following formula: ((wet stool weight [g]−dry stool weight [g]))/wet stool weight [g])×100.

[1] = system: rabbits with morphine-induced defecation dysfunction; assay: Improving effect on morphine-induced defecation dysfunction in rabbits (stool weight); format: in vivo, rabbit; conditions: morphine 1 mg/kg s.c.
Method: Effects on defecation dysfunction can be studied using an animal model with morphine-induced defecation dysfunction. To study the effect of GM-611 on defecation dysfunction, rabbits were subcutaneously administered with morphine (Anpec (trade name), Dainippon Pharmaceutical Co., Ltd.) to induce defecation dysfunction and then the stool weight was measured to evaluate the acceleratory effect of GM-611 on defecation in the model. Rabbits (Kbl:JW) were subcutaneously administered with vehicle (physiological saline) or morphine (1 mg/kg) and fed for 30 minutes (feeding stimulation), followed by oral administration of vehicle (3 w/v % gum arabic suspension) or GM-611 at a dose of 1.25 mg/kg, 2.5 mg/kg, 5 mg/kg, 10 mg/kg or 20 mg/kg. The stool weight for 2.5 hours after administration was measured (11 rabbits in each group) to examine the improving effect of GM-611 on morphine-induced defecation dysfunction.

normal dogs (beagle) = assay: Acceleratory effect on defecation in normal dogs (time until the first defecation); format: in vivo, dog
Method: In addition to the studies in rabbits, the acceleratory effect of GM-611 on defecation was also studied in normal dogs. Five beagle dogs were each catheterized to insert an intragastric catheter (Chugai Pharmaceutical Co., Ltd., 8.3-9.9 kg, 2 males and 3 females). Each dog was fed with pellets (CD-5 (CLEA Japan, Inc.), about 250 g) at 9:00 a.m. and then monitored for its defecation immediately after feeding. One hour after feeding, the animals […] defecation within 1 hour were intragastrically administered via the catheter with vehicle (3 w/v % gum arabic suspension) or GM-611 (0.3 mg/kg, 1 mg/kg, 3 mg/kg) and then measured for the time until the first defecation after administration.

healthy male volunteers = assay: Acceleratory effect on defecation in healthy volunteers (Phase I, repeated oral administration); format: in vivo, human
Method: The acceleratory effect of GM-611 on defecation was studied by repeated oral administration of GM-611 in Phase I trials. Healthy male volunteers, in groups of 6, were orally administered for 10 days with placebo or GM-611 (5 mg, 10 mg, 20 mg) on a three-times-a-day basis together with 150 mL water at 30 minutes before each meal, provided that the volunteers were administered once before breakfast on the first and tenth days. The volunteers were then monitored for their defecation during the period of administration. The acceleratory effect on defecation was assessed by the daily frequency of defecation, the number of days that at least one defecation was observed (the number of defecation days), and stool condition (watery diarrhea, muddy diarrhea, muddy soft stool, formed soft stool, normal stool, hard stool, very hard stool). It should be noted that in this test, the subjects were allocated at random to each test group and tested in a double-blind manner.

[2] = compared with erythromycin; cited from earlier work

For `CC[C@H]1OC(=O)[C@H](C)[C@@H](O[C@H]2C[C@@](C)(OC)[C@@H](O)[C@H](C)O2)[C@H](C)[C@@H](O[C@@H]2O[C@H](C)C[C@H](N(C)C(C)C)[C@H]2O)[C@@]2(C)CC(C)=C(O2)[C@H](C)C(=O)[C@]1(C)OC.CC[C@H]1OC(=O)[C@H](C)[C@@H](O[C@H]2C[C@@](C)(OC)[C@@H](O)[C@H](C)O2)[C@H](C)[C@@H](O[C@@H]2O[C@H](C)C[C@H](N(C)C(C)C)[C@H]2O)[C@@]2(C)CC(C)=C(O2)[C@H](C)C(=O)[C@]1(C)OC.O=C(O)/C=C/C(=O)O` [GM-611, erythromycin, 8,9-didehydro-N-demethyl-9-deoxo-6,11-dideoxy-6,9-epoxy-12-O-methyl N-(1-methylethyl)-11-oxo-, (2E)-2-butenedioate (2:1)], the “water content of stool” value (normal rabbits (Kbl:JW); oral 1.25-10 mg/kg GM-611) was “no change”, the stool weight (normal rabbits (Kbl:JW); oral 1.25-10 mg/kg, 0 to 4 hours after administration, vs vehicle) was “dose-dependently increased” and the “stool weight at the maximum dose” value ([1]; GM-611 20 mg/kg oral, 2.5 hours) was “reached the same level as observed in the morphine-untreated group”. The “morphine-induced defecation dysfunction (stool weight for 2.5 hours after administration)” value ([1]; feeding stimulation, oral GM-611 1.25-20 mg/kg) was “dose-dependently improved”, the stool condition (normal dogs (beagle); at first defecation after administration) was “not diarrhea” and the “time until the first defecation after administration” value (normal dogs (beagle); intragastric 0.3, 1, 3 mg/kg, 1 hour after feeding) was “dose-dependently decreased”. For the same compound, the “average number of defecation days” value (healthy male volunteers; healthy male volunteers, 5, 10, 20 mg three times a day oral for 10 days, averaged over all GM-611 groups, placebo 6.0) was 8.2, the “average daily frequency of defecation” value (healthy male volunteers; healthy male volunteers, 5, 10, 20 mg three times a day oral for 10 days, placebo 0.7) was 1.0 and the stool condition (healthy male volunteers; healthy male volunteers, GM-611-treated groups vs placebo-treated group) was “no change”. For the same compound, the antibacterial action [2] was “weaker antibacterial action than erythromycin”.
In the case of `CN1CC[C@]23c4c5ccc(O)c4O[C@H]2[C@@H](O)C=C[C@H]3[C@H]1C5` [morphine, reference compound], the “defecation enhanced by feeding stimulation (stool weight)” value ([1]; vs physiological saline) is reported as “significantly inhibited”.
With sennoside [reference compound] the “water content of stools” value (normal rabbits (Kbl:JW); oral sennoside 12-48 mg/kg) was “increased dose-dependently” and the stool weight (normal rabbits (Kbl:JW); oral sennoside 12-48 mg/kg, significant during 4 to 8 hours after administration (delayed)) was “dose-dependently increased”.
